Common to all, as to type: cell-based
Assay [1] has as its system primary human fibroblasts derived from IPF patients (LL29 cells). The assay can be described thus: Inhibition of the fibrotic process: αSMA staining in TGF-β1 treated fibroblasts. The following applies: Fibroblast; for EC50: 96 h, LL29 cells, TGF-β1 20 ng/mL, 4 days, % αSMA positive cells; for inhibition at 10 µM: given where EC50 >10 μM, LL29, αSMA, read-out: percent inhibition at 10 μM. An excerpt: Representative compounds were screened using primary human fibroblasts (derived from IPF patients) treated with TGF-β1 to determine their ability to inhibit the fibrotic process.
Human Fibroblast Cell Culture: Primary human fibroblasts derived from IPF patients (LL29 cells) [^1Xiaoqiu Liu, et. al., “Fibrotic Lung Fibroblasts Show Blunted Inhibition by cAMP Due to Deficient cAMP Response Element-Binding Protein Phosphorylation”, Journal of Pharmacology and Experimental Therapeutics (2005), 315(2), 678-687; ^2Watts, K. L., et. al., “RhoA signaling modulates cyclin D1 expression in human lung fibroblasts; implications for idiopathic pulmonary fibrosis”, Respiratory Research (2006), 7(1), 88] were obtained from American Type Culture Collection (ATCC) and expanded in F12 medium supplemented with 15% Fetal Bovine Serum and Penicillin/Streptomycin.
Compound Screening: Each compound was dissolved in DMSO as a 10 mM stock and used to prepare compound source plates. Serial dilution (1:2, 11-point dose-response curves from 10 μM to […]) and compound transfer was performed using the ECHO 550 (Labcyte, Sunnyvale, Calif.) into 384-well clear bottom assay plates (Greiner Bio-One) with appropriate DMSO backfill for a final DMSO concentration of 0.1%. LL29 cells are plated at 1,500 cells/well in 80 μL/well F12 medium supplemented with 1% Fetal Bovine Serum. One hour after addition of the cells, TGF-β1 (Peprotech; 20 ng/mL) was added to the plates to induce fibrosis (ref. 1 and 2 above). Wells treated with TGF-β1 and containing DMSO were used as controls. Cells were incubated at 37° C. and 5% CO2 for 4 days. Following incubation for 4 days, SYTOX green nucleic acid stain (Life Technologies [Thermo Fisher Scientific]) was added to the wells at a final concentration of 1 μM and incubated at room temperature for 30 min. Cells were then fixed using 4% formaldehyde (Electron Microscopy Sciences), washed 3 times with PBS followed by blocking and permeabilization using 3% Bovine Serum Albumin (BSA; Sigma) and 0.3% Triton X-100 (Sigma) in PBS. Cells were then stained with antibody specific to α-smooth muscle actin (αSMA; Abcam) (ref. 1 and 2 above) in 3% Bovine Serum Albumin (BSA; Sigma) and 0.3% Triton X-100 (Sigma) in PBS, and incubated overnight at 4° C. Cells were then washed 3 times with PBS, followed by incubation with Alexa Flor-647 conjugated secondary antibody (Life Technologies [Thermo Fisher Scientific]) and DAPI at room temperature for 1 hour. Cells were then washed 3 times with PBS and plates were sealed for imaging. αSMA staining was imaged by excitation at 630 nm and emission at 665 nm and quantified using the Compartmental Analysis program on the CellInsight CX5 (Thermo Scientific). Dead or apoptotic cells were excluded from analysis based on positive SYTOX green staining. % of total cells positive for αSMA were counted in each well and normalized to the average of 11 wells treated with TGF-β1 on the same plate using Dotmatics' Studies Software. The normalized averages (fold change over untreated) of 3 replicate wells for each compound concentration were used to create dose-responses curves and EC50 values were calculated using non-linear regression curve fit in the Dotmatics' Studies Software. For EC50 of >10 μM, the percent inhibition at 10 μM is provided.

Assay [2] deals with Wnt activity (Sp5-Luc reporter, SW480 colon carcinoma cells). The assay is described as follows: Wnt activity screening assay: Sp5-Luc reporter gene assay in SW480 cells. The note with it: Homo sapiens; for EC50: SW480 cells, overnight incubation; for inhibition at 10 µM: given where EC50 >10 μM, SW480, read-out: percent inhibition at 10 μM. An excerpt:
The screening assay for Wnt activity is described as follows. Reporter cell lines can be generated by stably transducing cancer cell lines (e.g., colon cancer) or primary cells (e.g., IEC-6 intestinal cells) with a lentiviral construct that includes a Wnt-responsive promoter driving expression of the firefly luciferase gene.
SW480 colon carcinoma cells were transduced with a lentiviral vector expressing luciferase with a human Sp5 promoter consisting of a sequence of eight TCF/LEF binding sites. SW480 cells stably expressing the Sp5-Luc reporter gene and a hygromycin resistance gene were selected by treatment with 150 μg/mL of hygromycin for 7 days. These stably transduced SW480 cells were expanded in cell culture and used for all further screening activities. Each compound was dissolved in DMSO as a 10 mM stock and used to prepare compound source plates. Serial dilution (1:3, 10-point dose-response curves starting from 10 μM) and compound transfer was performed using the ECHO 550 (Labcyte, Sunnyvale, Calif.) into 384-well white solid bottom assay plates (Greiner Bio-One) with appropriate DMSO backfill for a final DMSO concentration of 0.1%. For Sp5-Luc reporter gene assays, the cells were plated at 4,000 cells/well in 384-well plates with medium containing 1% fetal bovine serum and incubated overnight at 37° C. and 5% CO2. Following incubation, 20 μl of BrightGlo luminescence reagent (Promega) was added to each well of the 384-well assay plates. The plates were placed on an orbital shaker for 2 min and then luminescence was quantified using the Envision (Perkin Elmer) plate reader. Readings were normalized to DMSO only treated cells, and normalized activities were utilized for EC50 calculations using the dose-response log (inhibitor) vs. response -variable slope (four parameters) nonlinear regression feature available in GraphPad Prism 5.0 (or Dotmatics). For EC50 of >10 μM, the percent inhibition at 10 μM is provided.
On the technique in general: A reporter such as luciferase makes a cellular process visible.

Another assay has as its system SW480 colon cancer cells. The assay can be described thus: Cell viability assay (CellTiter-Blue). The note with it: Homo sapiens; for EC50: 96 h, SW480 cell viability, four days, CellTiter-Blue; for inhibition at 10 µM: given where EC50 >10 μM, SW480 viability, read-out: percent inhibition at 10 μM. On the procedure: Representative compounds were screened using the following assay procedure to assess the effect on cell viability as described below.
Each compound was dissolved in DMSO as a 10 mM stock and used to prepare compound source plates. Serial dilution (1:3, 8-point dose-response curves from 10 μM to 0.0045 μM) and compound transfer was performed using the ECHO 550 (Labcyte, Sunnyvale, Calif.) into 96-well clear bottom, black-walled plates (Corning-Costar).
Approximately 2×10^3 SW480 colon cancer cells were seeded into each well and allowed to incubate in the presence or absence of compound for four days at 37° C./5% CO2. Eight replicates of DMSO-treated cells served as controls and cells treated with compound were performed in duplicate.
After incubation, 20 μL of CellTiter-Blue (Promega) was added to each well allowed to incubate for approximately 3 hours. This reagent was a buffered solution which contains resazurin, metabolically active cells were able to reduce rezarurin (blue) into resorufin (pink) which was highly fluorescent. This measured fluorescence was used as a readout for cell viability.
After incubation, the plates were read at Ex 560 nm Em 590 nm (Cytation 3, BioTek). Dose-response curves were generated and EC50 concentration values were calculated using non-linear regression curve fit in the GraphPad Prism (San Diego, Calif.) or Dotmatics' Studies Software (Bishops Stortford, UK). For EC50 of >10 μM, the percent inhibition at 10 μM is provided.

As a reminder, the EC50 is the concentration needed to bring the measured effect to its halfway point. Read a low EC50 as greater potency. Broadly, the inhibition is the share of the control response that was lost under treatment. `CN(C)Cc1cncc(-c2ccc3[nH]nc(-c4cc5c(-c6ccccc6F)ccnc5[nH]4)c3n2)c1` [Compound 69, 1-(5-(3-(4-(2-Fluorophenyl)-1H-pyrrolo[2,3-b]pyridin-2-yl)-1H-pyrazolo [4,3-b]pyridin-5-yl)pyridin-3-yl)-N,N-dimethylmethanamine]: the 50% effective concentration (EC50) in assay [1] is 2 µM; in assay [2], more than 10 µM; in the assay with SW480 colon cancer cells it was more than 10 µM. Also, the inhibition at 10 µM came to 8.3% in assay [2] and 33.5% with SW480 colon cancer cells.
Take `O=C(Nc1cncc(-c2ccc3[nH]nc(-c4cc5c(-c6ccccc6F)ccnc5[nH]4)c3n2)c1)C1CC1` [Compound 76, N-(5-(3-(4-(2-Fluorophenyl)-1H-pyrrolo[2,3-b]pyridin-2-yl)-1H-pyrazolo [4,3-b]pyridin-5-yl)pyridin-3-yl)cyclopropanecarboxamide]: the EC50 in assay [1] is 5.26 µM; in assay [2] it was more than 10 µM; with SW480 colon cancer cells, 4.7 µM. Moreover, the inhibition at 10 µM in assay [2] was 37.3%.
Taken in the same sequence, the figures for `Fc1ccccc1-c1ccnc2[nH]c(-c3n[nH]c4ccc(-c5cncc(CNCc6ccccc6)c5)nc34)cc12` [Compound 80, N-Benzyl-1-(5-(3-(4-(2-fluorophenyl)-1H-pyrrolo[2,3-b]pyridin-2-yl)-1H-pyrazolo[4,3-b]pyridin-5-yl)pyridin-3-yl)methanamine] were 1.19 µM, more than 10 µM, 2.06 µM and 29%.
`Fc1ccccc1-c1ccnc2[nH]c(-c3n[nH]c4ccc(-c5ccccn5)nc34)cc12` [Compound 84, 3-(4-(2-Fluorophenyl)-1H-pyrrolo[2,3-b]pyridin-2-yl)-5-(pyridin-2-yl)-1H-pyrazolo[4,3-b]pyridine]: the EC50 (in assay [1]; in assay [2]; in the assay with SW480 colon cancer cells) was more than 10 µM each time. Also, the inhibition at 10 µM in assay [1] was determined as 0%; in assay [2] it was 3%; with SW480 colon cancer cells, 16.5%.
On to `c1cncc(-c2ccc3[nH]nc(-c4cc5c(-c6cccnc6)ccnc5[nH]4)c3n2)c1` [Compound 88, 5-(Pyridin-3-yl)-3-(4-(pyridin-3-yl)-1H-pyrrolo[2,3-b]pyridin-2-yl)-1H-pyrazolo[4,3-b]pyridine], for which the EC50 (in assay [1]; in assay [2]; in the assay on SW480 colon cancer cells) was more than 10 µM in each case. The inhibition at 10 µM in assay [1] is 25.3%; in assay [2] it was 10.1%; with SW480 colon cancer cells, 31.2%.
Turning to `CN(C)c1cncc(-c2ccc3[nH]nc(-c4cc5c(-c6cccnc6)ccnc5[nH]4)c3n2)c1` [Compound 91, N,N-Dimethyl-5-(3-(4-(pyridin-3-yl)-1H-pyrrolo[2,3-b]pyridin-2-yl)-1H-pyrazolo[4,3-b]pyridin-5-yl)pyridin-3-amine], the EC50 in assay [1] was 2.19 µM; in assay [2], more than 10 µM; in the assay on SW480 colon cancer cells it was more than 10 µM. The inhibition at 10 µM in assay [2] worked out at 18.2%; with SW480 colon cancer cells, 3.5%.
On to `CC(C)Nc1cncc(-c2ccc3[nH]nc(-c4cc5c(-c6cccnc6)ccnc5[nH]4)c3n2)c1` [Compound 96, N-Isopropyl-5-(3-(4-(pyridin-3-yl)-1H-pyrrolo[2,3-b]pyridin-2-yl)-1H-pyrazolo[4,3-b]pyridin-5-yl)pyridin-3-amine], for which the concentration giving a half-maximal response (EC50) in assay [1] is more than 10 µM; in assay [2], 0.255 µM; with SW480 colon cancer cells, more than 10 µM. The inhibition at 10 µM (in assay [1]; with SW480 colon cancer cells) was 0% in each case.
As for `c1cncc(-c2ccnc3[nH]c(-c4n[nH]c5ccc(-c6ccncc6)nc45)cc23)c1` [Compound 102, 3-(4-(Pyridin-3-yl)-1H-pyrrolo[2,3-b]pyridin-2-yl)-5-(pyridin-4-yl)-1H-pyrazolo[4,3-b]pyridine], the concentration for a half-maximal effect (EC50) (in assay [1]; in assay [2]; in the assay on SW480 colon cancer cells) was more than 10 µM each time. The inhibition at 10 µM was found to be 0% in assay [1], 9.5% in assay [2] and 10% in the assay on SW480 colon cancer cells.
As for `FC1(F)CCN(Cc2cncc(-c3ccc4[nH]nc(-c5cc6c(-c7cccnc7)ccnc6[nH]5)c4n3)c2)C1` [Compound 110, 5-(5-((3,3-Difluoropyrrolidin-1-yl)methyl)pyridin-3-yl)-3-(4-(pyridin-3-yl)-1H-pyrrolo[2,3-b]pyridin-2-yl)-1H-pyrazolo[4,3-b]pyridine], the EC50 is 0.213 µM in assay [1], more than 10 µM in assay [2] and more than 10 µM in the assay on SW480 colon cancer cells. In addition, the inhibition at 10 µM in assay [2] was determined as 47.7%; in the assay with SW480 colon cancer cells, 12.3%.
For `Nc1cncc(-c2ccc3[nH]nc(-c4cc5c(-c6ccncc6)ccnc5[nH]4)c3n2)c1` [Compound 115, 5-(3-(4-(Pyridin-4-yl)-1H-pyrrolo[2,3-b]pyridin-2-yl)-1H-pyrazolo[4,3-b]pyridin-5-yl)pyridin-3-amine], the EC50 (in assay [1]; in assay [2]; in the assay with SW480 colon cancer cells) was more than 10 µM throughout. Moreover, the figures for the inhibition at 10 µM (in assay [1]; in assay [2]; in the assay with SW480 colon cancer cells) were 28.8%, 24.4% and 17.5%, respectively.
For `Cc1ccncc1-c1ccc2[nH]nc(-c3cc4c(-c5ccncc5)ccnc4[nH]3)c2n1` [Compound 117, 5-(4-Methylpyridin-3-yl)-3-(4-(pyridin-4-yl)-1H-pyrrolo[2,3-b]pyridin-2-yl)-1H-pyrazolo[4,3-b]pyridine], the EC50 in assay [1] is 0.6 µM; in assay [2], more than 10 µM; in the assay on SW480 colon cancer cells, more than 10 µM. In addition, the inhibition at 10 µM in assay [2] was 11.8%; in the assay with SW480 colon cancer cells, 3.4%.

The values are drawn from patent US10206909B2, “3-(1H-pyrrolo[2,3-B]pyridin-2-yl)-1H-pyrazolo[4,3-B]pyridines and therapeutic uses thereof” (Samumed, LLC, priority 2015, dated 2019).
